Data: patent US20260022142A1, “MACROCYCLIC IMMUNOMODULATORS” (Bristol-Myers Squibb Company, priority 2022, published 2026)
pIC50: −log10 of the molar value. Numbered stars: 1 amine (or outer) side, 2 acyl side, 3 side chain; on linkers, the order of the positions; unused ones are H or OH. Bridge positions count the residues as written; N and C are the ends. Square brackets hold non-standard residues; d marks the D form. Peptide text beside a SMILES is read from it. * marks the point of attachment. ξ: configuration not given here. Phe(3,4,5-F3) = N[C@@H](Cc1cc(F)c(F)c(F)c1)C(=O)O; Phe(3-CF3) = N[C@@H](Cc1cccc(C(F)(F)F)c1)C(=O)O; Bip = N[C@@H](Cc1ccc(-c2ccccc2)cc1)C(=O)O; Phe(3-OMe) = COc1cccc(C[C@H](N)C(=O)O)c1; NH(CH2)14COOH = O=C(O)CCCCCCCCCCCCCCN*; Phe(3-Me) = Cc1cccc(C[C@H](N)C(=O)O)c1; γGlu = O=C(O)[C@H](CCC(=O)[*:2])N[*:1]; ξBip = NC(Cc1ccc(-c2ccccc2)cc1)C(=O)O; Val(3-OH) = CC(C)(O)[C@H](N)C(=O)O; 4Pal = N[C@@H](Cc1ccncc1)C(=O)O; Cha = N[C@@H](CC1CCCCC1)C(=O)O; Cit = NC(=O)NCCC[C@H](N)C(=O)O; dCha = N[C@H](CC1CCCCC1)C(=O)O; Thr(3ξ) = CC(O)[C@H](N)C(=O)O; Tle = CC(C)(C)[C@H](N)C(=O)O; Carboxymethyl = O=C(O)C*; Orn = NCCC[C@H](N)C(=O)O; Aun = NCCCCCCCCCCC(=O)O; Dab = NCC[C@H](N)C(=O)O; Dap = NC[C@H](N)C(=O)O; ξD = NC(CC(=O)O)C(=O)O; AEEA = NCCOCCOCC(=O)O; Piv = CC(C)(C)C(=O)*

What follows are compounds tested against T1, PD-1/PD-L1 interaction (PE-labeled human PD-L1-Ig binding to Jurkat cell line over-expressing human PD-1) (Homo sapiens, UniProt Q15116) (assay: Jurkat-PD-1 Cell Binding High-Content Screening Assay (CBA)). Settings: Jurkat cell line over-expressing human PD-1; PE-labeled PD-L1-Ig 20 nM final; read-out: Jurkat hPD1-PDL1 IC50.
T1 construct: expressed in transfected cells; host or cells: Jurkat
Format: cell-based
In short: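 Jurkat-hPD-1 cells, DMEM/10% FCS; cpd 2 h 37° C; PE-PD-L1-Ig 20 nM final, 1 h; 4% PFA fix + Hoechst 33342, 3× dPBS wash; high-content imaging read-out.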

T1 sequence (Q15116 25-288): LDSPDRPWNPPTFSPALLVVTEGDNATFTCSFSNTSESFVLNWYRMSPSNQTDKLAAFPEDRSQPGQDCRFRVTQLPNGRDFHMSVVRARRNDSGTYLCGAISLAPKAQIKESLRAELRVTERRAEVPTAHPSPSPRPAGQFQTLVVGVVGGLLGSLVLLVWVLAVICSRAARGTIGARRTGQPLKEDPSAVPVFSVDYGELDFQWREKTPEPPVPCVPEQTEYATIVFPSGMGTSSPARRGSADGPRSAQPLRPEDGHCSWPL

pIC50 | Structure (SMILES)
7.55 | Cc1cccc(C[C@@H]2NC(=O)[C@H](CC(=O)O)NC(=O)[C@H](Cc3ccc(OCC(=O)O)cc3)NC(=O)[C@H](CN)NC(=O)CSC[C@@H](C(=O)N[C@H](C)CC(=O)NCCCCCCCCCCC(=O)O)NC(=O)[C@H]([C@@H](C)O)NC(=O)[C@H](C(C)C)NC(=O)[C@H](CC3CCCCC3)NC(=O)[C@H](CCN)NC(=O)[C@@H](CC(C)C)NC(=O)[C@H](CCCN)NC(=O)[C@H](CCCNC(N)=O)NC(=O)[C@H](Cc3ccc(-c4ccccc4)cc3)NC(=O)[C@H](C(C)C)NC2=O)c1 [Compound 2620]
7.96 | COc1cccc(C[C@@H]2NC(=O)[C@H](CC(=O)O)NC(=O)[C@H](Cc3ccc(OCC(=O)O)cc3)NC(=O)[C@H](CN)NC(=O)CSC[C@@H](C(=O)N[C@@H](CCN)C(=O)NCCOCCOCC(=O)NCCCCCCCCCCC(=O)O)NC(=O)[C@H](CCCN)NC(=O)[C@H](C(C)C)NC(=O)[C@H](CC3CCCCC3)NC(=O)[C@H](CCN)NC(=O)[C@@H](CC(C)C)NC(=O)[C@H](CCCN)NC(=O)[C@H](Cc3ccc(O)cc3)NC(=O)[C@H](Cc3ccc(-c4ccccc4)cc3)NC(=O)[C@H](C(C)C)NC2=O)c1 [Compound 1289] ({CH2CO}-[Dap]Y(Carboxymethyl)D[Phe(3-OMe)]V[Bip]Y[Orn][dL][Dab][Cha]V[Orn]C[Dab][AEEA][Aun]-OH; thioether N-14)
8.92 | Cc1cccc(C[C@@H]2NC(=O)[C@H](CC(=O)O)NC(=O)[C@H](Cc3ccc(OCC(=O)O)cc3)NC(=O)[C@H](CCN)NC(=O)CSC[C@@H](C(=O)N[C@@H](CCN)C(=O)NCCOCCOCC(=O)NCCCCCCCCCCC(=O)O)NC(=O)[C@H](Cc3cnc[nH]3)NC(=O)[C@H](C(C)O)NC(=O)[C@H](CC3CCCCC3)NC(=O)[C@H](CCN)NC(=O)[C@@H](CC(C)C)NC(=O)[C@H](CCCN)NC(=O)[C@H](Cc3ccc(OCC(=O)O)cc3)NC(=O)[C@H](Cc3ccc(-c4ccccc4)cc3)NC(=O)[C@H](Cc3ccc(OCC(=O)O)cc3)NC2=O)c1 (stereo partly drawn) [Compound 3805] ({CH2CO}-[Dab]Y(Carboxymethyl)D[Phe(3-Me)]Y(Carboxymethyl)[Bip]Y(Carboxymethyl)[Orn][dL][Dab][Cha][Thr(3ξ)]HC[Dab][AEEA][Aun]-OH; thioether N-14)
7.11 | Cc1cccc(C[C@@H]2NC(=O)[C@H](CC(=O)O)NC(=O)[C@H](Cc3ccc(OCC(=O)O)cc3)NC(=O)[C@H](CCCNC(=N)N)NC(=O)CSC[C@@H](C(=O)N[C@H](CC(N)=O)C(=O)NCCCCCCCCCCC(=O)O)NC(=O)[C@H](CCC(N)=O)NC(=O)[C@H](C(C)O)NC(=O)[C@H](CC3CCCCC3)NC(=O)[C@H](CCN)NC(=O)[C@@H](CC(C)C)NC(=O)[C@H](CCCN)NC(=O)[C@H](Cc3ccc(OCC(=O)O)cc3)NC(=O)[C@H](Cc3ccc(-c4ccccc4)cc3)NC(=O)[C@H](Cc3ccc(OCC(=O)O)cc3)NC2=O)c1 (stereo partly drawn) [Compound 3529] ({CH2CO}-RY(Carboxymethyl)D[Phe(3-Me)]Y(Carboxymethyl)[Bip]Y(Carboxymethyl)[Orn][dL][Dab][Cha][Thr(3ξ)]QC[dN][Aun]-OH; thioether N-14)
7.54 | Cc1cccc(C[C@@H]2NC(=O)[C@H](CC(=O)O)NC(=O)[C@H](Cc3cc(F)c(F)c(F)c3)NC(=O)[C@H](Cc3ccncc3)NC(=O)CSC[C@@H](C(=O)N[C@@H](CCN)C(=O)NCCCCCCCCCCC(=O)O)NC(=O)[C@H](CO)NC(=O)[C@H](C(C)(C)O)NC(=O)[C@H](CC3CCCCC3)NC(=O)[C@H](CCN)NC(=O)[C@@H](CC(C)C)NC(=O)[C@H](CCCN)NC(=O)[C@H](Cc3ccc(OCC(=O)O)cc3)NC(=O)[C@H](Cc3ccc(-c4ccccc4)cc3)NC(=O)[C@H](Cc3ccc(OCC(=O)O)cc3)NC2=O)c1 [Compound 2200] ({CH2CO}-[4Pal][Phe(3,4,5-F3)]D[Phe(3-Me)]Y(Carboxymethyl)[Bip]Y(Carboxymethyl)[Orn][dL][Dab][Cha][Val(3-OH)]SC[Dab][Aun]-OH; thioether N-14)
7.55 | Cc1cccc(C[C@@H]2NC(=O)[C@H](CC(=O)O)NC(=O)[C@H](Cc3ccc(OCC(=O)O)cc3)NC(=O)[C@H](CCNC(=O)C(C)(C)C)NC(=O)CSC[C@@H](C(=O)N[C@@H](CCN)C(=O)NCCCCCCCCCCC(=O)O)NC(=O)[C@H](C(C)O)NC(=O)[C@H](C(C)(C)C)NC(=O)[C@H](CC3CCCCC3)NC(=O)[C@H](CCN)NC(=O)[C@@H](CC(C)C)NC(=O)[C@H](CCCN)NC(=O)[C@H](Cc3ccc(OCC(=O)O)cc3)NC(=O)[C@H](Cc3ccc(-c4ccccc4)cc3)NC(=O)[C@H](Cc3ccc(O)cc3)NC2=O)c1 (stereo partly drawn) [Compound 3517] ({CH2CO}-[Dab](Piv)Y(Carboxymethyl)D[Phe(3-Me)]Y[Bip]Y(Carboxymethyl)[Orn][dL][Dab][Cha][Tle][Thr(3ξ)]C[Dab][Aun]-OH; thioether N-14)
6.76 | CC(C)C[C@H]1NC(=O)[C@H](CCCN)NC(=O)[C@H](Cc2ccc(OCC(=O)O)cc2)NC(=O)[C@H](Cc2ccc(-c3ccccc3)cc2)NC(=O)[C@H](Cc2ccc(OCC(=O)O)cc2)NC(=O)[C@H](Cc2cccc(C(F)(F)F)c2)NC(=O)[C@H](CC(=O)O)NC(=O)[C@H](Cc2ccc(OCC(=O)O)cc2)NC(=O)[C@H](Cc2ccc(OCC(=O)O)cc2)NC(=O)CSC[C@@H](C(=O)N[C@@H](CCN)C(=O)NCCOCCOCC(=O)NCCOCCOCC(=O)N[C@@H](CCC(=O)N[C@@H](CCC(=O)NCCCCCCCCCCCCCCC(=O)O)C(=O)O)C(=O)O)NC(=O)[C@H](Cc2cnc[nH]2)NC(=O)[C@H](C(C)(C)O)NC(=O)[C@H](CC2CCCCC2)NC(=O)[C@H](CCN)NC1=O [Compound 3872] ({CH2CO}-Y(Carboxymethyl)Y(Carboxymethyl)D[Phe(3-CF3)]Y(Carboxymethyl)[Bip]Y(Carboxymethyl)[Orn][dL][Dab][Cha][Val(3-OH)]HC[Dab][AEEA][AEEA][γGlu][γGlu]-{NH(CH2)14COOH}; thioether N-14)
8.11 | Cc1cccc(C[C@@H]2NC(=O)[C@H](CC(=O)O)NC(=O)[C@H](Cc3ccc(OCC(=O)O)cc3)NC(=O)[C@H](CN)NC(=O)CSC[C@@H](C(=O)N[C@@H](CCCCN)C(=O)NCCOCCOCC(=O)NCCCCCCCCCCC(=O)O)NC(=O)[C@H](CCCNC(=N)N)NC(=O)[C@H](C(C)C)NC(=O)[C@H](CC3CCCCC3)NC(=O)[C@H](CCN)NC(=O)[C@@H](CC(C)C)NC(=O)[C@H](CCCN)NC(=O)[C@H](C(C)C)NC(=O)[C@H](Cc3ccc(-c4ccccc4)cc3)NC(=O)[C@H](C(C)C)NC2=O)c1 [Compound 2528] ({CH2CO}-[Dap]Y(Carboxymethyl)D[Phe(3-Me)]V[Bip]V[Orn][dL][Dab][Cha]VRCK[AEEA][Aun]-OH; thioether N-14)
7.83 | CC(C)C[C@H]1NC(=O)[C@H](CCCN)NC(=O)[C@H](C(C)C)NC(=O)[C@H](Cc2ccc(-c3ccccc3)cc2)NC(=O)[C@H](C(C)C)NC(=O)[C@H](Cc2c[nH]c3ccccc23)NC(=O)[C@H](CC(=O)O)NC(=O)[C@H](Cc2ccc(OCC(=O)O)cc2)NC(=O)[C@H](CN)NC(=O)CSC[C@@H](C(=O)NCCOCCOCC(=O)N[C@@H](CCCN)C(=O)NCCCCCCCCCCC(=O)O)NC(=O)[C@H]([C@@H](C)O)NC(=O)[C@H](C(C)C)NC(=O)[C@H](CC2CCCCC2)NC(=O)[C@H](Cc2cnc[nH]2)NC1=O [Compound 1097] ({CH2CO}-[Dap]Y(Carboxymethyl)DWV[Bip]V[Orn][dL]H[Cha]VTC[AEEA][Orn][Aun]-OH; thioether N-14)
7.93 | Cc1cccc(C[C@@H]2NC(=O)C(CC(=O)O)NC(=O)[C@H](Cc3ccc(OCC(=O)O)cc3)NC(=O)[C@H](CN)NC(=O)CSC[C@@H](C(=O)N[C@@H](CN)C(=O)NCCCCCCCCCCC(=O)O)NC(=O)[C@H]([C@@H](C)O)NC(=O)[C@H](C(C)C)NC(=O)[C@H](CC3CCCCC3)NC(=O)[C@H](CCN)NC(=O)[C@@H](CC(C)C)NC(=O)[C@H](CCCN)NC(=O)[C@H](CCCNC(N)=O)NC(=O)C(Cc3ccc(-c4ccccc4)cc3)NC(=O)[C@H](C(C)C)NC2=O)c1 (stereo partly drawn) [Compound 1181] ({CH2CO}-[Dap]Y(Carboxymethyl)[ξD][Phe(3-Me)]V[ξBip][Cit][Orn][dL][Dab][Cha]VTC[Dap][Aun]-OH; thioether N-14)
7.81 | Cc1cccc(C[C@@H]2NC(=O)[C@H](CC(=O)O)NC(=O)[C@H](Cc3ccc(OCC(=O)O)cc3)NC(=O)[C@H](CN)NC(=O)CSC[C@@H](C(=O)N[C@@H](CCCCN)C(=O)NCCCCCCCCCCC(=O)O)NC(=O)[C@H](CCCN)NC(=O)[C@H](C(C)C)NC(=O)[C@H](CC3CCCCC3)NC(=O)[C@H](CCN)NC(=O)[C@@H](CC3CCCCC3)NC(=O)[C@H](CCCN)NC(=O)[C@H](C(C)C)NC(=O)[C@H](Cc3ccc(-c4ccccc4)cc3)NC(=O)[C@H](C(C)C)NC2=O)c1 [Compound 2688] ({CH2CO}-[Dap]Y(Carboxymethyl)D[Phe(3-Me)]V[Bip]V[Orn][dCha][Dab][Cha]V[Orn]CK[Aun]-OH; thioether N-14)
6.83 | CC(=O)NCCCC[C@@H]1NC(=O)[C@H](C(C)(C)O)NC(=O)[C@H](CC2CCCCC2)NC(=O)[C@H](CCN)NC(=O)[C@@H](CC(C)C)NC(=O)[C@H](CCCN)NC(=O)[C@H](CCC(N)=O)NC(=O)[C@H](Cc2ccc(-c3ccccc3)cc2)NC(=O)[C@H](Cc2ccc(OCC(=O)O)cc2)NC(=O)[C@H](Cc2cccc(C(F)(F)F)c2)NC(=O)[C@H](CC(=O)O)NC(=O)[C@H](Cc2ccc(OCC(=O)O)cc2)NC(=O)[C@H](Cc2ccc(OCC(=O)O)cc2)NC(=O)CSC[C@@H](C(=O)N[C@@H](CCN)C(=O)NCCCCCCCCCCCCCCC(=O)O)NC1=O [Compound 3875] ({CH2CO}-Y(Carboxymethyl)Y(Carboxymethyl)D[Phe(3-CF3)]Y(Carboxymethyl)[Bip]Q[Orn][dL][Dab][Cha][Val(3-OH)]K(Ac)C[Dab]-{NH(CH2)14COOH}; thioether N-14)
